The target in one test is T1, b-ARG I (Bos taurus, UniProt Q2KJ64).
T1 construct: commercially-available purified bovine arginase (b-ARG I) instead of animal tissue; purchased MP Biomedicals; host or cells: bovine liver (enzyme purified from tissue)
T1 sequence (Q2KJ64 1-322): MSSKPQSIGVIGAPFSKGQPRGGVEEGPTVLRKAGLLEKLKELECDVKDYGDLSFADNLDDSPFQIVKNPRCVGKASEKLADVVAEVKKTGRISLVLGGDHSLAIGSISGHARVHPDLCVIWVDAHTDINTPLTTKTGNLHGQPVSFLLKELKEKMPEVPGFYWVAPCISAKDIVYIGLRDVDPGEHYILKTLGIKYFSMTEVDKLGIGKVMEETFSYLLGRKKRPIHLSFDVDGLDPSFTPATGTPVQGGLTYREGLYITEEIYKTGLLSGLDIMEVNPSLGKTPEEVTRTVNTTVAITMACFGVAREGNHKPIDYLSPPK
Briefly: Enzyme kinetic study and determination of Ki values on b-ARG I. The test is classed as biochemical, bovine. As to conditions: for Type of Inhibition: Lineweaver–Burk, Dixon and Cornish–Bowden plots.

The target of test [1] is T2, purified liver bovine arginase (b-ARG I) (Bos taurus, UniProt Q2KJ64).
T2 construct: commercially-available purified bovine arginase (b-ARG I) instead of animal tissue; purchased MP Biomedicals; host or cells: bovine liver (enzyme purified from tissue)
T2 sequence (Q2KJ64 1-322): T1 sequence (Q2KJ64 1-322)
Briefly: In vitro colorimetric microassay of arginase inhibition on purified bovine liver arginase.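 For all read-outs here: urea formed from L-arginine detected colorimetrically with alpha-isonitrosopropiophenone at 550 nm after 60 min at 37 °C, inhibition relative to solvent controls taken as 100% arginase activity.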 The test is classed as biochemical. The following applies: for inhibition at 100 µM: read-out: b-ARG I Inhibition (%) (100 μM).

Test [2] has as its target T3, recombinant human arginase I (h-ARG I) (Homo sapiens, UniProt P05089).
T3 construct: purchased Interchim BXC572/n P0408M10
T3 sequence (P05089 1-322): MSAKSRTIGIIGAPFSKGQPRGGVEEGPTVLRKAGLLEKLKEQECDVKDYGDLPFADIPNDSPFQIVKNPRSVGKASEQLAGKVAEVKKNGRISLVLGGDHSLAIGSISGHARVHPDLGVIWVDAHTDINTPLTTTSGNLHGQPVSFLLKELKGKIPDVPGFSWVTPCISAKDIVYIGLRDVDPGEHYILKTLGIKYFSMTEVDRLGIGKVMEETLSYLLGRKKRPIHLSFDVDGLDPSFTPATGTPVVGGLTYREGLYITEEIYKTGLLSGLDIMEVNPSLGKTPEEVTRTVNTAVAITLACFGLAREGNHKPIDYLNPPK
Briefly: In vitro colorimetric microassay of arginase inhibition on recombinant human arginase I. The test is classed as biochemical.

[3] abbreviates: b-ARG I, Cheng–Prusoff equation, [S] = 14.3 mM L-arginine, Km = 55.5 ± 10.5 µM, read-out: Ki.
The mark [4] stands for this setting: 100 μM final concentration, three separate in-duplicate experiments.
Where [5] appears, read: purified bovine liver arginase, three separate in-triplicate experiments, read-out: IC50 (b-ARG I).

“And” between values parts separate entries of the source, which are not always exact repeats. Identical values can stand only once. Like-named read-outs stand apart in the source and are kept apart here.

In general, Ki refers to a measure of affinity in units of concentration, obtained from inhibition or displacement. In general, IC50 refers to the concentration at which inhibition is half-maximal. The inhibition is the relative decrease from the control value, in per cent.

With `O=C(/C=C/c1ccc(O)c(O)c1)O[C@@H]1C[C@](O)(C(=O)O)C[C@@H](O)[C@H]1O` [CGA, chlorogenic acid, reference compound], the inhibition constant (Ki) at b-ARG I was found to be 8.4 ± 1.2 µM. The “Type of Inhibition” value at b-ARG I (b-ARG I) is on record as “competitive”. Moreover, the concentration for half-maximal inhibition (IC50) in test [1] (IC50 (b-ARG I), purified bovine liver arginase, three separate in-triplicate experiments) was < 50 µM and 10.6 µM. For the same molecule, the inhibition at 100 µM in test [1] stood at 71 ± 1%.

Take `O=C(O)/C=C/c1ccc(O)c(O)c1` [Caffeic acid, reference compound]: the half-maximal inhibitory concentration (IC50) in test [1] was 86.7 ± 8 µM. Take `O=C(/C=C/c1ccc(O)c(O)c1)NCCc1ccccc1` [Compound 1, (E)-N-(2-Phenylethyl)-3,4-dihydroxycinnamide]: on b-ARG I (setting [3]), the Ki is 5.5 ± 1 µM. Besides, the “Type of Inhibition” value is reported as “competitive inhibitor” at b-ARG I (b-ARG I, listed as CAPA) and “competitive” on b-ARG I (b-ARG I, listed as CAPA (1)). The IC50 was determined as 60.3 ± 7.8 µM in test [2] and 6.9 ± 1.3 µM in test [1] (setting [5]). The inhibition at 100 µM in test [1] (setting [4]) amounted to 64 ± 2%. Consider `COc1cc(/C=C/C(=O)NCCc2ccccc2)ccc1O` [Compound 2, (E)-N-(2-Phenylethyl)-3-methoxy-4-hydroxycinnamide], for which, in test [1] (setting [4]), the inhibition at 100 µM came to 37 ± 4%. The same measure, in the same setting: with `O=C(/C=C/c1ccc(O)cc1)NCCc1ccccc1` [Compound 3, (E)-N-(2-Phenylethyl)-4-hydroxycinnamide] the figure was 31 ± 4%; with `COc1cc(/C=C/C(=O)NCCc2ccccc2)cc(OC)c1OC` [Compound 4, (E)-N-(2-Phenylethyl)-3,4,5-trimethoxycinnamide], 35 ± 2%; with `O=C(/C=C/c1ccccc1)NCCc1ccccc1` [Compound 5, (E)-N-(2-Phenylethyl)cinnamide], 34 ± 2%. Take `O=C(/C=C/c1ccc(O)c(O)c1)NCCc1ccc(O)cc1` [Compound 6, (E)-N-(2-(4-Hydroxyphenyl)ethyl)-3,4-dihydroxycinnamide]: the inhibition at 100 µM in test [1] (setting [4]) is 58 ± 2%. The half-inhibitory concentration (IC50) in test [1] (setting [5]) turned out to be 22.1 ± 1.6 µM. Turning to `COc1cc(/C=C/C(=O)NCCc2ccc(O)cc2)ccc1O` [Compound 7, (E)-N-(4-Hydroxyphenethyl)-3-methoxy-4-hydroxycinnamide], the inhibition at 100 µM in test [1] (setting [4]) worked out at 24 ± 2%.

Consider `O=C(/C=C/c1ccc(O)cc1)NCCc1ccc(O)cc1` [Compound 8, (E)-N-(4-Hydroxyphenethyl)-4-hydroxycinnamide], for which, in test [1] (setting [4]), the inhibition at 100 µM is 40 ± 2%. On the same count and under the same terms, with `COc1cc(/C=C/C(=O)NCCc2ccc(O)cc2)cc(OC)c1OC` [Compound 9, (E)-N-(4-Hydroxyphenethyl)-3,4,5-trimethoxycinnamide] the figure was 30 ± 2%; with `O=C(/C=C/c1ccccc1)NCCc1ccc(O)cc1` [Compound 10, (E)-N-(4-Hydroxyphenethyl)-cinnamide], 34 ± 3%. As to `O=C(/C=C/c1ccc(O)c(O)c1)NCCc1ccc(O)c(O)c1` [Compound 11, (E)-N-(3,4-Dihydroxyphenethyl)-3,4-dihydroxycinnamide], the inhibition at 100 µM in test [1] (setting [4]) was determined as 62 ± 3%. Moreover, the IC50 in test [1] (setting [5]) amounted to 115 ± 1.3 µM. The like results for `COc1cc(/C=C/C(=O)NCCc2ccc(O)c(O)c2)ccc1O` [Compound 12, (E)-N-(3,4-Dihydroxyphenethyl)-3-methoxy-4-hydroxycinnamide] were, in that order, 61 ± 3% and 198.7 ± 1.4 µM. The like results for `O=C(/C=C/c1ccc(O)cc1)NCCc1ccc(O)c(O)c1` [Compound 13, (E)-N-(3,4-Dihydroxyphenethyl)-4-hydroxycinnamide] were, in that order, 54 ± 1% and 170.4 ± 1.7 µM. Taken in the same sequence, the figures for `COc1cc(/C=C/C(=O)NCCc2ccc(O)c(O)c2)cc(OC)c1OC` [Compound 14, (E)-N-(3,4-Dihydroxyphenethyl)-3,4,5-trimethoxycinnamide] were 53 ± 1% and 193.6 ± 1.4 µM. Turning to `O=C(/C=C/c1ccccc1)NCCc1ccc(O)c(O)c1` [Compound 15, (E)-N-(3,4-Dihydroxyphenethyl)cinnamide], the inhibition at 100 µM in test [1] (setting [4]) was 68 ± 3%. For the same molecule, the IC50 in test [1] (setting [5]) turned out to be 39.3 ± 1.4 µM.

Regarding `O=C(/C=C/c1ccc(O)c(O)c1)Nc1ccc(O)cc1` [Compound 16, (E)-N-(4-Hydroxyphenyl)-3,4-dihydroxycinnamide], in test [1] (setting [4]), the inhibition at 100 µM amounted to 59 ± 1%. For the same molecule, the IC50 in test [1] (setting [5]) was found to be 35.6 ± 1.3 µM. Taken in the same sequence, the figures for `O=C(NCCc1ccc(O)cc1)c1ccc(O)c(O)c1` [Compound 17, N-(4-Hydoxyphenethyl)-3,4-dihydroxybenzamide] were 52 ± 2% and 175.3 ± 1.5 µM. On to `COC(=O)C(Cc1ccc(O)c(O)c1)NC(=O)C=Cc1ccc(O)c(O)c1` (stereo not shown) [Compound 18, 3-(3,4-Dihydroxyphenyl)-2-[3-(3,4-dihydroxyphenyl)-acryloylamino]-propionic acid methyl ester], for which the inhibition at 100 µM in test [1] (setting [4]) turned out to be 62 ± 1%. Besides, the IC50 in test [1] (setting [5]) was 41.9 ± 1.3 µM.

In the case of `COC(=O)[C@H](CS)NC(=O)/C=C/c1ccc(O)c(O)c1` [Compound 19, (E)-N-(3,4-Dihydroxycinnamoyl)-L-cysteine methyl ester], the inhibition at 100 µM in test [1] (setting [4]) came out at 67 ± 1%. Further, the IC50 in test [1] (setting [5]) is 37 ± 1.3 µM. In the case of `N=C(NO)NCC[C@H](N)C(=O)O` [nor-NOHA, N^ω-hydroxy-nor-L-arginine, reference compound], on b-ARG I (setting [3]), the Ki is 1.3 ± 0.1 µM. At b-ARG I (b-ARG I), the “Type of Inhibition” value was “competitive”. Also, the inhibition at 100 µM in test [1] (setting [4]) was determined as 99 ± 1%. Further, in test [1] (setting [5]), the IC50 is 1.7 ± 0.2 µM.

(Values after PMC5085689, “Cinnamide Derivatives as Mammalian Arginase Inhibitors: Synthesis, Biological Evaluation and Molecular Docking” (International Journal of Molecular Sciences, 2016).)
